In patent publication US8039514B2, “Sulfonamide compounds and use thereof” (Asahi Kasei Pharma Corporation, priority 2008, dated 2011) one finds IC50 data, which are given here for 19 compounds.

A value given as a limit tells only on which side of the number the result lay.

The target of this experiment is T1, human calcium-sensing receptor (CaSR) (Homo sapiens, UniProt P41180).
T1 construct: expressed in transfected cells
T1 sequence (P41180 20-1078): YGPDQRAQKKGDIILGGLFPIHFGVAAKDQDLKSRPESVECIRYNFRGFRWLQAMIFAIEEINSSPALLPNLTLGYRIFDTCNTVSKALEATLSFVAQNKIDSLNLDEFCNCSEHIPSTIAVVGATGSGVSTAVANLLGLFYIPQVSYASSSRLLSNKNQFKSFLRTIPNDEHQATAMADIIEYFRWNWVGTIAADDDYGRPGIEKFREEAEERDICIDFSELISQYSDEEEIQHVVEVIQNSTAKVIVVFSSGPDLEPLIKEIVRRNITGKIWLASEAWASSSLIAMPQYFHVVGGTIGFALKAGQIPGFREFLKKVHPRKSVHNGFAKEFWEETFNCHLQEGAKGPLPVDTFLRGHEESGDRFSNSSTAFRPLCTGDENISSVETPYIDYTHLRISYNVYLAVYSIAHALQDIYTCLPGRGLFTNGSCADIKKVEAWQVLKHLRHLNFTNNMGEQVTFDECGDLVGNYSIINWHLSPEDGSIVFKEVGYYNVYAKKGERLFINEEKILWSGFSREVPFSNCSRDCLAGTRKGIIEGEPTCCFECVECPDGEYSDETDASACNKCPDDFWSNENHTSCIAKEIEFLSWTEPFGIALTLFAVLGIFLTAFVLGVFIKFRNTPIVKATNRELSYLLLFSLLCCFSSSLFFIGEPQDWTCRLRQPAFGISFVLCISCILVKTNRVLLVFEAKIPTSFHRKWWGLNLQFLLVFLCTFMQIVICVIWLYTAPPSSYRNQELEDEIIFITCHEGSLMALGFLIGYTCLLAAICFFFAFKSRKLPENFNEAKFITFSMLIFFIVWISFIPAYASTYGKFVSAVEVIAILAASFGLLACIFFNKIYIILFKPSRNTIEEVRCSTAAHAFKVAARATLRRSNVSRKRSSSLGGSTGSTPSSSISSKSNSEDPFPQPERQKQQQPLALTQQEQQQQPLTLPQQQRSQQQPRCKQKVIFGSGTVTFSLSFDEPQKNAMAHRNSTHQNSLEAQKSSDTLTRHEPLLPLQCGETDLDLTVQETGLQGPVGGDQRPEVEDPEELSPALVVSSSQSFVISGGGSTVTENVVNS
The experiment in a line: intracellular Ca assay, CaSR antagonist activity in HEK293/hCaSR cells. In kind it is cell-based. Conditions: Fura2-AM, inhibition of response to calcium chloride ligand solution, read-out: IC50 values according to the intracellular Ca assay (CaSR antagonist activity). In outline:
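HEK293/hCaSR cells were loaded with Fura2-AM and pre-incubated with compound for 160 s at 37° C in HEPES buffer (pH 7.4, 0.8 mM CaCl2), then challenged with calcium ligand solution. Read-out was the peak 340/380 nm fluorescence ratio; inhibition is relative to no-compound (0%) and no-calcium-ligand (100%) controls.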

Regarding `CN(C[C@H](O)CNC(C)(C)Cc1ccc2ccccc2c1)S(=O)(=O)c1ccc(-c2cccc(C(=O)O)c2)cc1` [Exp. 3-30, (R)-4′-(N-(2-hydroxy-3-(2-methyl-1-(naphthalen-2-yl)propan-2-ylamino)propyl)-N-methylsulfamoyl)biphenyl-3-carboxylic acid], the IC50 is not above 300 nM. With `CN(C[C@H](O)CNC(C)(C)Cc1ccc2ccccc2c1)S(=O)(=O)Cc1ccc(-c2cccc(C=CC(=O)O)c2)cc1` [Exp. 3-91, (R)-3-(4′-((N-(2-hydroxy-3-(2-methyl-1-(naphthalen-2-yl)propan-2-ylamino)propyl)-N-methylsulfamoyl)methyl)biphenyl-3-yl)acrylic acid], the IC50 was in the range of 1000 to 3000 nM. The figure for `CN(C[C@H](O)CNC(C)(C)Cc1ccc2ccccc2c1)S(=O)(=O)c1ccccc1-c1cccc(C=CC(=O)O)c1` [Exp. 3-1, (R)-3-(2′-(N-(2-hydroxy-3-(2-methyl-1-(naphthalen-2-yl)propan-2-ylamino)propyl)-N-methylsulfamoyl)biphenyl-3-yl)acrylic acid] is 300 to 1000 nM; for `CN(C[C@H](O)CNC(C)(C)Cc1ccc2ccccc2c1)S(=O)(=O)c1cccc(-c2ccc(C(=O)O)c(Cl)c2)c1` [Exp. 3-11, (R)-3-chloro-3′-(N-(2-hydroxy-3-(2-methyl-1-(naphthalen-2-yl)propan-2-ylamino)propyl)-N-methylsulfamoyl)biphenyl-4-carboxylic acid] it is 300 to 1000 nM; for `CN(C[C@H](O)CNC(C)(C)CC1Cc2ccccc2C1)S(=O)(=O)c1cccc(-c2ccc(C=CC(=O)O)cc2)c1` [Exp. 3-56, (R)-3-(3′-(N-(3-(1-(2,3-dihydro-1H-inden-2-yl)-2-methylpropan-2-ylamino)-2-hydroxypropyl)-N-methylsulfamoyl)biphenyl-4-yl)acrylic acid] it is 300 to 1000 nM.

For the compound `CCc1cc(-c2c(F)cccc2CCC(=O)O)ccc1S(=O)(=O)N(C)C[C@H](O)CNC(C)(C)CCCc1ccsc1` [Exp. 8-24, (R)-3-(3′-ethyl-6-fluoro-4′-(N-(2-hydroxy-3-(2-methyl-5-(thiophen-3-yl)pentan-2-ylamino)propyl)-N-methylsulfamoyl)biphenyl-2-yl)propionic acid], the IC50 was not above 300 nM. The figure for `CN(C[C@H](O)CNC(C)(C)CC1Cc2ccccc2C1)S(=O)(=O)c1c(Cl)cc(-c2cccc(C(=O)O)c2)cc1Cl` [Exp. 3-126, (R)-3′,5′-dichloro-4′-(N-(3-(1-(2,3-dihydro-1H-inden-2-yl)-2-methylpropan-2-ylamino)-2-hydroxypropyl)-N-methylsulfamoyl)biphenyl-3-carboxylic acid] is not above 300 nM; for `Cc1cc(-c2ccc(S(=O)(=O)N(C)C[C@H](O)CNC(C)(C)Cc3ccc4ccccc4c3)cc2)ccc1C(=O)O` [Exp. 3-33, (R)-4′-(N-(2-hydroxy-3-(2-methyl-1-(naphthalen-2-yl)propan-2-ylamino)propyl)-N-methylsulfamoyl)-3-methylbiphenyl-4-carboxylic acid] it is 300 to 1000 nM; for `CN(C[C@H](O)CNC(C)(C)Cc1ccc2ccccc2c1)S(=O)(=O)Cc1cccc(-c2ccc(CCC(=O)O)cc2)c1` [Exp. 3-87, (R)-3-(3′-((N-(2-hydroxy-3-(2-methyl-1-(naphthalen-2-yl)propan-2-ylamino)propyl)-N-methylsulfamoyl)methyl)biphenyl-4-yl)propionic acid] it is 1000 to 3000 nM. Regarding `CN(C[C@H](O)CNC(C)(C)CC1Cc2ccccc2C1)S(=O)(=O)c1cccc(-c2cccc(C=CC(=O)O)c2)c1` [Exp. 3-58, (R)-3-(3′-(N-(3-(1-(2,3-dihydro-1H-inden-2-yl)-2-methylpropan-2-ylamino)-2-hydroxypropyl)-N-methylsulfamoyl)biphenyl-3-yl)acrylic acid], the IC50 is not above 300 nM. The figure for `CN(C[C@H](O)CNC(C)(C)CC1Cc2ccccc2C1)S(=O)(=O)c1cc(-c2cc(F)cc(C(=O)O)c2)cc(C(F)(F)F)c1` [Exp. 3-128, (R)-3′-(N-(3-(1-(2,3-dihydro-1H-inden-2-yl)-2-methylpropan-2-ylamino)-2-hydroxypropyl)-N-methylsulfamoyl)-5-fluoro-5′-(trifluoromethyl)biphenyl-3-carboxylic acid] is not above 300 nM; for `CCc1cc(-c2ccc(CCC(=O)O)cc2)ccc1S(=O)(=O)N(C)C[C@H](O)CNC(C)(C)CCCc1ccccc1F` [Exp. 9-89, (R)-3-(3′-ethyl-4′-(N-(3-(5-(2-fluorophenyl)-2-methylpentan-2-ylamino)-2-hydroxypropyl)-N-methylsulfamoyl)biphenyl-4-yl)propionic acid] it is not above 300 nM; for `CN(C[C@H](O)CNC(C)(C)Cc1ccc2ccccc2c1)S(=O)(=O)c1ccc(-c2ccccc2C(=O)O)cc1` [Exp. 3-29, (R)-4′-(N-(2-hydroxy-3-(2-methyl-1-(naphthalen-2-yl)propan-2-ylamino)propyl)-N-methylsulfamoyl)biphenyl-2-carboxylic acid] it is 300 to 1000 nM.

Consider `CN(C[C@H](O)CNC(C)(C)CC1Cc2ccccc2C1)S(=O)(=O)c1cc(F)c(-c2cccc(CCC(=O)O)c2)cc1F` [Exp. 3-180, (R)-3-(4′-(N-(3-(1-(2,3-dihydro-1H-inden-2-yl)-2-methylpropan-2-ylamino)-2-hydroxypropyl)-N-methylsulfamoyl)-2′,5′-difluorobiphenyl-3-yl)propionic acid], for which the IC50 is not above 300 nM. The figure for `CN(C[C@H](O)CNC(C)(C)CC1Cc2ccccc2C1)S(=O)(=O)c1ccc(-c2ccc(F)c(CCC(=O)O)c2)cc1C(F)(F)F` [Exp. 5-62, (R)-3-(4′-(N-(3-(1-(2,3-dihydro-1H-inden-2-yl)-2-methylpropan-2-ylamino)-2-hydroxypropyl)-N-methylsulfamoyl)-4-fluoro-3′-(trifluoromethyl)biphenyl-3-yl)propionic acid] is not above 300 nM; for `CN(C[C@H](O)CNC(C)(C)Cc1ccc2ccccc2c1)S(=O)(=O)c1ccc(-c2ccc(C(=O)O)c(N)c2)cc1` [Exp. 3-34, (R)-3-amino-4′-(N-(2-hydroxy-3-(2-methyl-1-(naphthalen-2-yl)propan-2-ylamino)propyl)-N-methylsulfamoyl)biphenyl-4-carboxylic acid] it is 1000 to 3000 nM.

Regarding `CN(C[C@H](O)CNC(C)(C)CC1Cc2ccccc2C1)S(=O)(=O)c1cccc(-c2cccc(C(=O)O)c2F)c1` [Exp. 3-201, (R)-3′-(N-(3-(1-(2,3-dihydro-1H-inden-2-yl)-2-methylpropan-2-ylamino)-2-hydroxypropyl)-N-methylsulfamoyl)-2-fluorobiphenyl-3-carboxylic acid], the IC50 was not above 300 nM. The result for `Cc1cc(-c2cc(C(F)(F)F)cc(S(=O)(=O)N(C)C[C@H](O)CNC(C)(C)CC3Cc4ccccc4C3)c2)ccc1C(=O)O` [Exp. 3-197, (R)-3′-(N-(3-(1-(2,3-dihydro-1H-inden-2-yl)-2-methylpropan-2-ylamino)-2-hydroxypropyl)-N-methylsulfamoyl)-3-methyl-5′-(trifluoromethyl)biphenyl-4-carboxylic acid] reads not above 300 nM; that for `CCc1cc(-c2ccc(OC)c(CCC(=O)O)c2)ccc1S(=O)(=O)N(C)C[C@H](O)CNC(C)(C)CCCc1ccccc1` [Exp. 5-30, (R)-3-(3′-ethyl-4′-(N-(2-hydroxy-3-(2-methyl-5-phenylpentan-2-ylamino)propyl)-N-methylsulfamoyl)-4-methoxybiphenyl-3-yl)propionic acid], not above 300 nM.

A word on the IC50: it is the point on the concentration scale where inhibition reaches its midpoint.
